From US12310975B2, “Modulators of BCL6 proteolysis and associated methods of use” (Arvinas Operations, Inc., priority 2019, dated 2025)

Experiments:
BCL6 [1] = biological target: T1, BCL6 (Homo sapiens (Human), UniProt P41182); assay: BCL6 TR-FRET assay (BCL6-Avitag-Biotin / BCoR-Cy5 peptide); assay type: binding
In short: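 TR-FRET displacement assay: biotinylated His-SUMO-BCL6-Avitag (2 nM) pre-incubated 30 min at room temperature with compound (12-point 3-fold titration), then BCoR-Cy5 peptide (100 nM) and Eu-streptavidin (2 nM) added. Buffer: 50 mM HEPES pH 7.5, 125 mM NaCl, 0.01% Triton X, glutathione or DTT, 0.03% BSA. Read after 2 h.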

BCL6 [2] = biological target: T1, BCL6; assay: Immunofluorescence high content imaging of BCL6 degradation in T47D cells; assay type: cell-based; conditions: for Dmax: T47D; for DC50: class symbols A-D, read-out: EC50 (nM)*
In short: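 BCL6 loss was quantified by high-content imaging (10×, 4 fields/well) after PFA fixation and anti-BCL6/Alexa-488 staining with Hoechst nuclear and CellMask counterstains. Compounds were applied for 3 days to T47D breast cancer cells in RPMI-10% FBS, 11 points, 3-fold steps, top 0.1 or 1 μM.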

[3] = class symbols A-D, read-out: IC50 (nM)***

CC(=O)COc1cc2cc(Nc3nc(C#CC4CCCN(Cc5ccc6c(c5)C(=O)N(C5CCC(=O)NC5=O)C6=O)C4)ncc3Cl)ccc2n(C)c1=O (stereo not shown) [compound 173, 5-((3-((5-chloro-4-((1-methyl-2-oxo-3-(2-oxopropoxy)-1,2-dihydroquinolin-6-yl)amino)pyrimidin-2-yl)ethynyl)piperidin-1-yl)methyl)-2-(2,6-dioxopiperidin-3-yl)isoindoline-1,3-dione]
IC50 (BCL6 [1]; [3]): ≥ 100 nM
Dmax (BCL6 [2]; maximum, class symbols A-C): < 50%
DC50 (BCL6 [2]): 10 to 50 nM

CNC(=O)COc1cc2cc(Nc3nc(N4CCC5(CCN(CC6CCN(c7ccc8c(c7)C(=O)N(C7CCC(=O)NC7=O)C8=O)CC6)C5)CC4)ncc3Cl)ccc2n(C(C)C)c1=O (stereo not shown) [compound 507, 2-{[6-({5-chloro-2-[2-({1-[2-(2,6-dioxopiperidin-3-yl)-1,3-dioxo-2,3-dihydro-1H-isoindol-5-yl]piperidin-4-yl}methyl)-2,8-diazaspiro[4.5]decan-8-yl]pyrimidin-4-yl}amino)-2-oxo-1-(propan-2-yl)-1,2-dihydroquinolin-3-yl]oxy}-N-methylacetamide]
IC50 (BCL6 [1]; read-out: IC50): < 10 nM
Dmax (BCL6 [2]): ≥ 70%

CNC(=O)c1cc2cc(Nc3nc(N4CCC(CN5CCN(c6ccc7c(c6)C(=O)N(C6CCC(=O)NC6=O)C7=O)CC5)CC4)ncc3Cl)ccc2n(C)c1=O (stereo not shown) [compound 214, 6-((5-chloro-2-(4-((4-(2-(2,6-dioxopiperidin-3-yl)-1,3-dioxoisoindolin-5-yl)piperazin-1-yl)methyl)piperidin-1-yl)pyrimidin-4-yl)amino)-N,1-dimethyl-2-oxo-1,2-dihydroquinoline-3-carboxamide]
EC50 (BCL6 [1]): > 100 nM
IC50 (BCL6 [2]): ≥ 100 nM

CNC(=O)COc1cc2cc(Nc3nc(N4CCC(CN5CCC6(CC5)CCN(c5cccc7c5C(=O)N(C5CCC(=O)NC5=O)C7=O)C6)CC4)ncc3Cl)ccc2n(C(C)C)c1=O (stereo not shown) [compound 512, 2-{[6-({5-chloro-2-[4-({2-[2-(2,6-dioxopiperidin-3-yl)-1,3-dioxo-2,3-dihydro-1H-isoindol-4-yl]-2,8-diazaspiro[4.5]decan-8-yl}methyl)piperidin-1-yl]pyrimidin-4-yl}amino)-2-oxo-1-(propan-2-yl)-1,2-dihydroquinolin-3-yl]oxy}-N-methylacetamide]
IC50 (BCL6 [1]; read-out: IC50): < 10 nM
Dmax (BCL6 [2]): 50 to 70%

CNC(=O)COc1cc2cc(Nc3nc(N4CCC(N(C)C5CCN(CC6CCN(c7ccc(C#Cc8ccc9c(c8)CN(C8CCC(=O)NC8=O)C9=O)cc7)CC6)CC5)CC4)ncc3Cl)ccc2n(C)c1=O (stereo not shown) [compound 138, 2-((6-((5-chloro-2-(4-((1-((1-(4-((2-(2,6-dioxopiperidin-3-yl)-1-oxoisoindolin-5-yl)ethynyl)phenyl)piperidin-4-yl)methyl)piperidin-4-yl) (methyl)amino)piperidin-1-yl)pyrimidin-4-yl)amino)-1-methyl-2-oxo-1,2-dihydroquinolin-3-yl)oxy)-N-methylacetamide]
IC50 (BCL6 [1]; [3]): < 10 nM
Dmax (BCL6 [2]; maximum, class symbols A-C): < 50%
DC50 (BCL6 [2]): 10 to 50 nM

CNC(=O)COc1cc2cc(Nc3nc(N4CCC(CN5CC(N6CCC(c7ccc8c(c7)C(=O)N(C7CCC(=O)NC7=O)C8=O)CC6)C5)CC4)ncc3Cl)ccc2n(C(C)C)c1=O (stereo not shown) [compound 538, 2-({6-[(5-chloro-2-{4-[(3-{4-[2-(2,6-dioxopiperidin-3-yl)-1,3-dioxo-2,3-dihydro-1H-isoindol-5-yl]piperidin-1-yl}azetidin-1-yl)methyl]piperidin-1-yl}pyrimidin-4-yl)amino]-2-oxo-1-(propan-2-yl)-1,2-dihydroquinolin-3-yl}oxy)-N-methylacetamide]
IC50 (BCL6 [1]; read-out: IC50): < 10 nM
Dmax (BCL6 [2]): ≥ 70%

CNC(=O)COc1cc2cc(Nc3nc(N4CCC(O[C@H]5C[C@@H](COc6cccc7c6C(=O)N(C6CCC(=O)NC6=O)C7=O)N(C)C5)CC4)ncc3Cl)ccc2n(C(C)C)c1=O (stereo partly drawn) [compound 476, 2-[(6-{[5-chloro-2-(4-{[(3S,5S)-5-({[2-(2,6-dioxopiperidin-3-yl)-1,3-dioxo-2,3-dihydro-1H-isoindol-4-yl]oxy}methyl)-1-methylpyrrolidin-3-yl]oxy}piperidin-1-yl)pyrimidin-4-yl]amino}-2-oxo-1-(propan-2-yl)-1,2-dihydroquinolin-3-yl)oxy]-N-methylacetamide]
IC50 (BCL6 [1]; read-out: IC50): 10 to 50 nM
Dmax (BCL6 [2]): < 50%
